# Results published in patent US9505768B2, “Compositions and methods for modulating TLR4” (The Regents of the University of California, priority 2012, dated 2016).
# Entries after “also recorded” stand apart in the source; their conditions may differ. Read-outs that look alike come from different tables or passages of the source.
# Columns and labels:
# [1] = tested on: mouse bone marrow derived dendritic cells (mBMDC); assay: IL-6 induction in mouse bone marrow derived dendritic cells (ELISA); assay type: cell-based; settings: for IL-6 secretion in MyD88 null dendritic cells: 5 μM overnight, vs C57BL/6 WT
# human TLR4 = molecular target: T1, human TLR4 (Homo sapiens, UniProt O00206+Q9Y6Y9); assay: Human TLR4 HEK Blue NFκB/SEAP reporter assay; assay type: cell-based; settings: for human TLR4, values normalized to Cmpd 1: hTLR4 HEK293 transfectoma, all compounds tested at 10 μM, Cmpd 1 set at 100
# T1 construct: host or cells: HEK293 (HEK Blue) cells with NFκB/SEAP reporter
# T1 sequence (O00206 24-839): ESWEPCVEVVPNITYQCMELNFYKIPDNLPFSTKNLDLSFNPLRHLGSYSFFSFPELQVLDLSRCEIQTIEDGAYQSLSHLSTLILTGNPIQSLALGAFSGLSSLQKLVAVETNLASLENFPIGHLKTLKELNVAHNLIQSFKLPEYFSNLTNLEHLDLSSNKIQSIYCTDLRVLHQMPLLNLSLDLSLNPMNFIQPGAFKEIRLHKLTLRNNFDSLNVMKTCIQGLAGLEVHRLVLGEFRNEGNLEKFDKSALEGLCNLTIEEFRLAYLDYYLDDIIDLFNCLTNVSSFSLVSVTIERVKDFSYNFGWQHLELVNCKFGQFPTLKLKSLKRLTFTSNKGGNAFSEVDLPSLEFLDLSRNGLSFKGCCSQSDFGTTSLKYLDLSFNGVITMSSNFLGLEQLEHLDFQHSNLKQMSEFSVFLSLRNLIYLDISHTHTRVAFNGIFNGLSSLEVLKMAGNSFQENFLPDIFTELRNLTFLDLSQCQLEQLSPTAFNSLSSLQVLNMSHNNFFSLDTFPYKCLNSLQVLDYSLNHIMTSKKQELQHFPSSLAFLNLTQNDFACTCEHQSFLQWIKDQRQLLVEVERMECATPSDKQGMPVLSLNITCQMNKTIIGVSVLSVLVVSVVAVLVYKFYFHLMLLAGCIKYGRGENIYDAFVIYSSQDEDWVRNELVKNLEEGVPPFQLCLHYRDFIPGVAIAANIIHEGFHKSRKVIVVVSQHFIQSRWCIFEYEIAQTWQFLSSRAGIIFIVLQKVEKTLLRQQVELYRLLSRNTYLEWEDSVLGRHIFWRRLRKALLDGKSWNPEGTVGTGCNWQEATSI
# T1 sequence (Q9Y6Y9 19-160): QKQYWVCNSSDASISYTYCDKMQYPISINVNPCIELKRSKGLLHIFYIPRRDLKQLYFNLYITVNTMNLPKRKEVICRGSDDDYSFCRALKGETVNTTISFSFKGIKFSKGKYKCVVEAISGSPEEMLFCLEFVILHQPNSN
# Experimental: (§1) The above assays were utilized to compare the derivatives of the lead pyrimidoindole for their ability to activate mouse and human TLR4. […] Each cytokine induction curve was first converted to a percent activity curve, and then the AUC of the percent activity curve was calculated. The process of converting to a percent activity curve allowed subtracting background and adjusting for plate-to-plate variation.
# (§2) The culture supernatants were harvested after a 20-24 h incubation period. SEAP activity in the supernatants was determined by a colorimetric assay, using either the SEAPorter Assay Kit (Imgenex), with absorbance read at 405 nm, or QuantiBlue (Invivogen), with absorbance read at 630 nm.
# [2] = tested on: mouse bone marrow derived dendritic cells (mBMDC)
# Experimental: 0.5% DMSO in saline served as a vehicle controls. The levels type I IFN were determined using L929-ISRE luciferase reporter cell line using murine IFN beta standard (FIG. 7A). IP-10 levels were determined by ELISA (FIG. 7B). Data shown are mean±SEM of triplicates in representative of two independent experiments showing similar results. * denotes p<0.05 was considered as significant compared to vehicle using one way ANOVA with Dunnett's post hoc testing.
# L929 cells stably expressing an interferon sensitive response element (ISRE) luciferase reporter construct were kindly provided by Dr. B. Beutler (UT Southwestern, Texas). […] The bioactivity of type I IFN in mBMDC supernatants was measured by luciferase assay using L929-ISRE cells as described previously. […] Thus, 50 μL of μBMDC supernatant was incubated with L929-ISRE cells in 50 μL of DMEM for 6 h. Mu-IFN Beta Standard (PBL Interferon Source, Piscataway, N.J.) was used as a standard. The luciferase activities were measured by Steady-Glo luciferase assay buffer (Promega, Madison, Wis.).
# [3] = tested on: mouse bone marrow derived dendritic cells (mBMDC); assay: IP-10 induction in mBMDC (ELISA), surrogate marker of type I IFN; assay type: cell-based; settings: for IP-10 induction in LPS mutant (Trif lps/lps) cells: 5 μM overnight, vs C57BL/6 WT
# mouse TLR4 = molecular target: T2, mouse TLR4 (Mus musculus, UniProt Q9JHF9+Q9QUK6); assay: Murine TLR4 HEK Blue NFκB/SEAP reporter assay; assay type: cell-based; settings: for mouse TLR4, area under curve (AUC) values normalized to Cmpd 1: mTLR4 HEK transfectoma, 312 nM to 10 μM, Cmpd 1 set at 100
# T2 construct: host or cells: HEK293 (HEK Blue) cells with NFκB/SEAP reporter
# T2 sequence (Q9QUK6 26-835): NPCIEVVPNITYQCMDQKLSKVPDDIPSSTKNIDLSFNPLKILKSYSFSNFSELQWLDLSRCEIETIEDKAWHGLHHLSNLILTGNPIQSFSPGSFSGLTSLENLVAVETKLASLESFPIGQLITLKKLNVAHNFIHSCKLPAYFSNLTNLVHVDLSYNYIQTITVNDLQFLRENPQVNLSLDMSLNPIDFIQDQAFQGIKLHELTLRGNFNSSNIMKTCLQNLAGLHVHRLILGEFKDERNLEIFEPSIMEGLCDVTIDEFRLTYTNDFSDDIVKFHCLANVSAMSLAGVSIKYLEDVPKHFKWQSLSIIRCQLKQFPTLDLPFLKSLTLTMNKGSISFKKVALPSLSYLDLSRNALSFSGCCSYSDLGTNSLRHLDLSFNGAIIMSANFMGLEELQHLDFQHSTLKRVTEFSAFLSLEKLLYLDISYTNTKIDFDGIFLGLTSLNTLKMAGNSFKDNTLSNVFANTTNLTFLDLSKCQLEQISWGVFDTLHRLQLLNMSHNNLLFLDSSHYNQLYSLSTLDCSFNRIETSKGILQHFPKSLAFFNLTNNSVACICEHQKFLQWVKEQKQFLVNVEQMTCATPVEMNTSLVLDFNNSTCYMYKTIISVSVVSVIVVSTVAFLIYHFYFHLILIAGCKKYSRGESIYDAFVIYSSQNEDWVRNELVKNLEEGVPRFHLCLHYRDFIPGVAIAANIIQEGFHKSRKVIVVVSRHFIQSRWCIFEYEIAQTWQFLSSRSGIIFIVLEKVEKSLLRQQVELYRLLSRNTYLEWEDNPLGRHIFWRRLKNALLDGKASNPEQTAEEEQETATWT
# T2 sequence (Q9JHF9 19-160): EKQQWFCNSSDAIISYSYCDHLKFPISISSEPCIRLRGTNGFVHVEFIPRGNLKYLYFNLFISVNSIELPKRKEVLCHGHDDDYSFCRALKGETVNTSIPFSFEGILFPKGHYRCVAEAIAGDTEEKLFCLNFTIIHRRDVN
# Experimental: as §1, §2
# [4] = tested on: human peripheral blood mononuclear cells (hPBMC); assay: IL-8 release from human PBMC (ELISA); assay type: cell-based; settings: compound 1 10 μM
# Experimental: Human PBMC were isolated from buffy coats obtained from the San Diego Blood Bank (San Diego, Calif.) as described previously. […] The levels of IL-8 in the supernatants were determined by ELISA (BD Biosciences, La Jolla, Calif.). Human cell cultures were treated with 10 ng/mL LPS as the positive control.
# [5] = tested on: mouse bone marrow derived dendritic cells (mBMDC); assay: IL-6 induction in mouse bone marrow derived dendritic cells (ELISA); assay type: cell-based; settings: relative to Cmpd 1 / within series
# Experimental: as §1
# (§3) BMDC were prepared from C57BL/6 mice as described. See e.g., Wu, C. […] BMDC (10^5 cells per well) were plated in 96-well plates in 200 μL of complete RPMI1640 supplemented with 10% fetal calf serum (FCS; Sigma Aldrich), 100 U/mL penicillin, and 100 μg/mL streptomycin (Invitrogen). […] After 18 h incubation, the cell culture supernatants were collected. LPS (purified LPS, Invivogen, San Diego, Calif.) or MPLA (1 μg/mL synthetic MPLA, Invivogen, San Diego, Calif.) were used as positive controls. […] The AUC was calculated from BMDC dose-response curves using Prism 5 (GraphPad, San Diego). Each cytokine induction curve was first converted to a percent activity curve, and then the AUC of the percent activity curve was calculated. The process of converting to a percent activity curve allowed subtracting background and adjusting for plate-to-plate variation.
# [6] = tested on: TLR2, TLR3, TLR4/MD-2/CD14, TLR5, TLR7, TLR8, or TLR9 expressing HEK293 cells; settings: 10 μM, 20-24 h, SEAP
# Excerpt: To identify the target receptor, we used HEK293 cells stably transfected with individual human (h) TLRs: TLR2, TLR3, TLR4/MD-2/CD14, TLR5, TLR7, TLR8, or TLR9 expressing HEK293 cells, along with an NFκB activation reporter producing secreted embryonic alkaline phosphatase (SEAP).
# C57BL/6 mice [7] = assay: Protection from LPS/galactosamine-induced lethal liver injury; assay type: in vivo, mouse; settings: for serum TNFα: […] post challenge, compared to vehicle treated mice; for mice survived: i.p. pretreatment 500 nmol, LPS/galactosamine challenge next day; for Survival: i.p. pretreatment (500 nmol Cmpd, 40 μg MPLA), next day LPS 0.2 μg + galactosamine 12 mg per animal, survivors/treated
# Experimental: FIGS. 11A-11B depict that administration of Cmpd 42 and Cmpd 33 protects hosts from LPS-induced lethal liver injury. FIG. 11A: Schematic showing that C57BL/6 mice were intraperitoneously injected with 500 nmol Cmpd. 42 (n=11) or Cmpd 33 (n=11). 40 μg MPLA (n=9) and vehicle (n=9) were used as positive and negative controls, respectively. Next day, mice were challenged with LPS (0.2 μg/animal) and galactosamine (12 mg/animal). FIG. 11B: Histogram showing results of sera collected 1.5 h post challenge and measured for TNFα. *:p<0.05 compared to vehicle treated mice.
# Lipopolysaccharide (LPS), a TLR4 ligand, causes severe lethal liver injury when administered with galactosamine. Pretreatment of mice with MPLA is known to improve the survival in this model. To study whether Cmpd 42 and Cmpd 33 are able to act as immunomodulatory agents similar to MPLA, the mice were treated with Cmpd 42 or Cmpd 33 and challenged with LPS/galatosamine the next day, as depicted in FIG. 11A. Over 80% of Cmpd 42 and 100% of Cmpd 33-treated mice survived.
# C57BL/6 mice [8] = tested on: C57BL/6 mice
# [9] = tested on: mouse bone marrow derived dendritic cells (mBMDC); assay: IP-10 induction in mBMDC (ELISA), surrogate marker of type I IFN; assay type: cell-based; settings: relative to Cmpd 1
# Experimental: In addition to the production of inflammatory cytokines (IL-6, IL-12, TNFα, etc.) mediated by NFκB activation, TLR4 signaling can result in the production of type I interferons, a feature that is not only important for activation of dendritic cells leading to good adjuvant activity, but would also be important for rapid defense against a variety of pathogens, particularly viruses. […] To determine the relative ability of all compounds to induce the production of type 1 IFN, each was evaluated in mouse bone marrow derived dendritic cells as shown in Tables 1-3.
# as §3
# In addition, the levels of IP-10, a surrogate marker of type I IFN, in the supernatants were determined by ELISA (R&D Systems, Minneapolis, Minn.).
# [10] = Oral bioavailability in mice (serum LC/MS); assay type: in vivo; settings: mouse, C57BL/6 mice, 1 μmol oral vs 500 nmol i.v., AUC method
# Experimental: FIG. 14 depicts time course showing that Cmpd 42 is orally bioavailable in mice. C57BL/6 mice were intravenously (500 nmol) or orally (1 μmol) administered with Cmpd 42. Sera were collected at the indicated time point and concentration of the compound were measured by LC/MS. Legend: oral administration, closed circle; i.v. administration, closed box. X-axis: time (min). Y-axis: concentration of Cmpd 42 (nM).
# To test oral bioavailability, Cmpd 42 was orally or intravenously administered to C57BL/6 mice and the drug concentration in sera was measured. Results are depicted in FIG. 14.
# mBMDC = assay: MTT viability assay in mBMDC; settings: 18 h, concentrations up to 10 μM
# Experimental: Cytotoxicity of the compounds was evaluated by MTT assay as a measure of viability. mBMDC (10^5/well) were incubated with graded concentrations of the compounds for 18 h and compared with vehicle (0.5% DMSO) and MPLA (1 μg/mL). […] (FIG. 6B) The cells were lysed after the overnight incubation with MTT reagents, and absorbance at 570 nm was measured, subtracting the reference absorbance at 650 nm. Data shown are mean±SEM of triplicates and are representative of two independent experiments showing similar results.
# [11] = WT vs Cd14-/- mBMDC, 3.7 μM overnight
Compound,"human TLR4, values normalized to Cmpd 1 (human TLR4)","mouse TLR4, area under curve (AUC) values normalized to Cmpd 1 (mouse TLR4)",IL-6 activity in mBMDC (in words) [5],IL-6 secretion in MyD88 null dendritic cells [1],IP-10 induction in LPS mutant (Trif lps/lps) cells [3],serum TNFα (C57BL/6 mice [7]),mice survived (C57BL/6 mice [7]),Survival (C57BL/6 mice [7]),IP-10 production in mBMDC (in words) [9],cell viability (MTT) (mBMDC),other results
"O=C(CSc1nc2c([nH]c3ccccc32)c(=O)n1-c1ccccc1)NC1CCCCC1 [Compound 1, N-cyclohexyl-2-((4-oxo-3-phenyl-4,5-dihydro-3H-pyrimido[5,4-b]indol-2-yl)thio)acetamide]",100,100,the most active; also recorded: high IL-6,,,,,,,,"IL-6 released by mBMDC cultures (average, SD) ([1]; 5 μM Cmpd 1): 10.5 ng/mL; IL-6 secretion in TLR4 deficient vs wild-type mBMDC ([1]; 10 μM, 18 h): completely abrogated; CD14 dependence of IL-6 production [1, 11]: not dependent on CD14; also recorded: retains IL-6 activity; human TLR4 reporter cell activation (in words) (human TLR4): dose-dependent activation; OD630 of human TLR4 reporter cells (human TLR4; 10 μM Cmpd 1): 0.88; CD14 dependence of type I IFN production [2, 11]: not dependent on CD14; type I IFN production ([2]; graded doses, mBMDC overnight): dose-dependent response; IP-10 production [3]: dose-dependent response; IP-10 production in mBMDC (in words) [3]: high IP-10 production; IP-10 released by mBMDC cultures (average) [3]: 590.0 ± 10.5 pg/mL; mouse TLR4 reporter cell activation (in words) (mouse TLR4): dose-dependent activation; relative reporter activation, murine TLR4 cells (mouse TLR4; 5 μM Cmpd 1): 1.52±0.03; IL-8 released by hPBMC cultures (average, SD) [4]: 7.8 ± 0.8 ng/mL; TLR selectivity among TLR transfected HEK293 reporter cells [6]: only those expressing TLR4/MD-2/CD14 responded"
"O=C(CSc1nc2c([nH]c3ccccc32)c(=O)n1-c1ccccc1)NCC1CCCO1 (stereo not drawn) [Compound 33, 2-((4-oxo-3-phenyl-4,5-dihydro-3H-pyrimido[5,4-b]indol-2-yl)thio)-N-((tetrahydrofuran-2-yl)methyl)acetamide]",13,21,diminished IL-6 release,significantly impaired,significantly decreased,significantly lower level,100%,11/11,nearly equivalent induction of IP-10,,maximum tolerated dose relative to MPLA (C57BL/6 mice [8]; liver injury model with galactosamine): over 100 times
"Cn1c2ccccc2c2nc(SCC(=O)NC3CCCCC3)n(-c3ccccc3)c(=O)c21 [Compound 42, N-cyclohexyl-2-((5-methyl-4-oxo-3-phenyl-4,5-dihydro-3H-pyrimido[5,4-b]indol-2-yl)thio)acetamide]",92,100,high IL-6,significantly impaired,significantly decreased,significantly lower level,Over 80%,9/11,high IP-10 production,did not reduce cell viability,"bioavailability [10]: ~15%; mice survived (C57BL/6 mice [8]; C57BL/6, mouse, in vivo): 100%; maximum tolerated dose relative to MPLA (C57BL/6 mice [8]; mouse, in vivo): > 10 times; serum TNFα (C57BL/6 mice [8]; mouse, in vivo): significantly lower level"
"CCCn1c2ccccc2c2nc(SCC(=O)NC3CCCCC3)n(-c3ccccc3)c(=O)c21 [Compound 48, N-cyclohexyl-2-((4-oxo-3-phenyl-5-propyl-4,5-dihydro-3H-pyrimido[5,4-b]indol-2-yl)thio)acetamide]",,,,,,,,,,did not reduce cell viability,
"N#CCn1c2ccccc2c2nc(SCC(=O)NC3CCCCC3)n(-c3ccccc3)c(=O)c21 [Compound 51, 2-((5-(cyanomethyl)-4-oxo-3-phenyl-4,5-dihydro-3H-pyrimido[5,4-b]indol-2-yl)thio)-N-cyclohexylacetamide]",19,55,,,,,,,,did not reduce cell viability,
